Results as given in patent publication US20130310379A1, “MODULATORS OF METHYL MODIFYING ENZYMES, COMPOSITIONS AND USES THEREOF” (CONSTELLATION PHARMACEUTICALS, priority 2010, published 2013).

Experiments:
Y641N EZH2 = Y641N EZH2 (Homo sapiens, UniProt Q15910, Y641N); test: Y641N EZH2 assay: performed as the EZH2 assay, using reconstituted H3K27Me2 oligonucleosomes as substrate; format: biochemical
Procedure: Assays were carried out by mixing rPRC2 together with biotinylated oligonucleosome substrates in the presence of the radio-labeled enzyme co-factor, S-adenosyl-L-methionine (^3H SAM) (Perkin Elmer) and monitoring the enzymatically mediated transfer of tritiated methyl groups from ^3H SAM to histone lysine residues. The amount of resulting tritated methylhistone product was measured by first capturing the biotinylated oligonuclesomes in streptavidin (SAV) coated FlashPlates (Perkin Elmer), followed by a wash step to remove un-reacted ^3H SAM, and then counting on a TopCount NXT 384 well plate scintillation counter (Perkin Elmer). The final assay conditions for EZH2 were as follows: 50 mM Tris Buffer pH 8.5, 1 mM DTT, 69 uM Brij-35 detergent, 5.0 mM MgCl2, 0.1 mg/mL BSA, 0.2 uM ^3H SAM, 0.2 uM biotinylated oligonucleosomes, 3.6 uM H3K27me3 peptide and 2 nM EZH2.
Compound IC50 measurements were obtained as follows: Compounds were first dissolved in 100% DMSO as 10 mM stock solutions. […] A 12.5 uL volume of the HMT enzyme, H3K27me3 peptide and oligonucleosome substrate in assay buffer was added to each well of the assay plate using a Multidrop Combi (ThermoFisher). Compounds were pre-incubated with the enzyme for 20 min, followed by initiation of the methyltransferase reaction by addition of 12.5 uL of 3H SAM in assay buffer (final volume=25 uL). The final concentrations of compounds ranged from a top default concentration of 80 uM down to 0.16 uM in ten 2-fold dilution steps. Reactions were carried out for 60 minutes and quenched with 20 uL per well of 1.96 mM SAH, 50 mM Tris PH 8.5, 200 mM EDTA. Stopped reactions were transferred to SAV coated Flashplates (Perkin Elmer), incubated for 120 min, washed with a plate washer, and then read on the TopCount NXT (1.0 min/well) to measure the amount of methylhistone product formed during the reaction. The amount of methylhistone product was compared with the amount of product formed in the 0% and 100% inhibition control wells allowing the calculation of % Inhibition in the presence of the individual compounds at various concentrations. IC50's were computed using a 4 parameter fit non-linear curve fitting software package (XLFIT, part of the database package, ActivityBase (IDBS)) where the four parameters were IC50, Hill slope, pre-transitional baseline (0% INH), and post-transitional baseline (100% INH); with the latter two parameters being fixed to zero and 100%, respectively, by default.

EZH2 = EZH2 (Homo sapiens, UniProt Q15910); test: EZH2 assay: rPRC2 with biotinylated oligonucleosome substrates and 3H SAM, FlashPlate scintillation counting, IC50; format: biochemical; conditions: rPRC2, biotinylated oligonucleosome substrates, 3H SAM; read-out: EZH2 IC50
Sequence of EZH2 (Q15910 whole entry): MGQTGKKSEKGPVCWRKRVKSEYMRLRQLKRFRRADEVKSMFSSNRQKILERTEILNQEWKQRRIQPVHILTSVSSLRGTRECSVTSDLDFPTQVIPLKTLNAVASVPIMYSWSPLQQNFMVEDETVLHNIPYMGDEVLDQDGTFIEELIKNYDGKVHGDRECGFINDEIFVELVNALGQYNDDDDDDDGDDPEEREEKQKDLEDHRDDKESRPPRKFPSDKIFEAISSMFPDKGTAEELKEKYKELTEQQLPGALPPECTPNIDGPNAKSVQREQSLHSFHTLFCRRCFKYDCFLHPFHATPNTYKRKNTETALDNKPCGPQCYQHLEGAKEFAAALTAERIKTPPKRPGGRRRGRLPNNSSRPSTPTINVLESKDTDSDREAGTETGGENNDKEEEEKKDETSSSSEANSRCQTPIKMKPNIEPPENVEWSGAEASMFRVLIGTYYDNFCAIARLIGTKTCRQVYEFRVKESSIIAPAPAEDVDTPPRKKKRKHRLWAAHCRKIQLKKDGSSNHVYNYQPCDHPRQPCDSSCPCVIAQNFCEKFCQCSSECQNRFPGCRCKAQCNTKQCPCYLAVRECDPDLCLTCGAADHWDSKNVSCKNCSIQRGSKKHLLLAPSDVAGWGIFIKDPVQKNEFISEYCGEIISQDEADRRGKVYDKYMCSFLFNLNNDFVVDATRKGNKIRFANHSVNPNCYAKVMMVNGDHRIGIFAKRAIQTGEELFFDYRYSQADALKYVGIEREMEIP
Sequence of EZH2 (O75530 whole entry partner): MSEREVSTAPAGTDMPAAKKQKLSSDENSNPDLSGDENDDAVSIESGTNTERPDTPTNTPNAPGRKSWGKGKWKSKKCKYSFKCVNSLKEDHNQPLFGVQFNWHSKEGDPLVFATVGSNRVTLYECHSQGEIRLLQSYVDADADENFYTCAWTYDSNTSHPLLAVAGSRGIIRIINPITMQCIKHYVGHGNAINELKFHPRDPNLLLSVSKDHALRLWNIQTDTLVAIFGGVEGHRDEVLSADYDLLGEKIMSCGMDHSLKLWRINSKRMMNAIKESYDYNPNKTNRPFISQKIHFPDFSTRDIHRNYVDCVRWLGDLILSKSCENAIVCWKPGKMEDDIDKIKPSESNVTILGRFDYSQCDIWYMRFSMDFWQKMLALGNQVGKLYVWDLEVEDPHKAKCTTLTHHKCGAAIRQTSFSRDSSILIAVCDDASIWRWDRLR
Sequence of EZH2 (Q15022 whole entry partner): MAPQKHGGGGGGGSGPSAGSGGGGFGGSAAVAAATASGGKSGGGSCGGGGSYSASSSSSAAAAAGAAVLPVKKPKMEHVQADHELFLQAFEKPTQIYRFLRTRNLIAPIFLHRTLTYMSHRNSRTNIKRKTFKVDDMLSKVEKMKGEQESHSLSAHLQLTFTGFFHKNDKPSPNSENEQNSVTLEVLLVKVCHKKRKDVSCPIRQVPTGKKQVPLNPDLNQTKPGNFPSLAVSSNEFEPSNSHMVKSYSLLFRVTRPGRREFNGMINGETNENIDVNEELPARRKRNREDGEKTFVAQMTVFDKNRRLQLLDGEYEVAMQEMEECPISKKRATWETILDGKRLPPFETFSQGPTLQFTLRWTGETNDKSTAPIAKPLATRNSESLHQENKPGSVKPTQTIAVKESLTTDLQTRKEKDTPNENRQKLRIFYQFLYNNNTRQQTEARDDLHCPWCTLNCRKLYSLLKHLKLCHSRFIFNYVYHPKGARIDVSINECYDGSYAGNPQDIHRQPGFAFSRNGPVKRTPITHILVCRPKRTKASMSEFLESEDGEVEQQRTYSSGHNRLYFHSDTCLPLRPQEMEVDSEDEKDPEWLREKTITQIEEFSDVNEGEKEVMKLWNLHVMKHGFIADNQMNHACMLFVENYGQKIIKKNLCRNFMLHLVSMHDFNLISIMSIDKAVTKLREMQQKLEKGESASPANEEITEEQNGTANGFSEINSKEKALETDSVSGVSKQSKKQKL
Outline: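 IC50 from 4-parameter fit, baselines fixed at 0 and 100%. Compounds (top 80 uM, 2-fold series to 0.16 uM) pre-incubated 20 min with 2 nM EZH2-PRC2; 60-min methylation in pH 8.5 Tris with 0.2 uM 3H SAM, 0.2 uM oligonucleosomes, 3.6 uM H3K27me3 peptide.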

Sequence of Y641N EZH2 (Q15910 whole entry Y641N): as the sequence (Q15910 whole entry) above, with Y641N counted along it
Sequence of Y641N EZH2 (O75530 whole entry partner): as the sequence (O75530 whole entry partner) above
Sequence of Y641N EZH2 (Q15022 whole entry partner): as the sequence (Q15022 whole entry partner) above

Row | IC50 (Y641N EZH2) | IC50 (EZH2) | SMILES
1 | > 80 µM | 20 to 80 µM | CC1(C)CC(NC(=O)N2CCC(Oc3cccc(-c4cn[nH]c4)c3C#N)CC2)CC(C)(C)N1 [Compound I-429]
2 | > 80 µM | 20 to 80 µM | CN1CCN(c2cccc(Oc3ccc(C(=O)NC4CC(C)(C)NC(C)(C)C4)cc3Cl)c2)CC1 [Compound I-417]
3 | > 80 µM | 20 to 80 µM | CC1(C)CC(NC(=O)c2ccc(/C=C/c3ccccc3)cc2)CC(C)(C)N1 [Compound I-330]
4 | < 5 µM | < 5 µM | Cc1cc(C(=O)NC2CC(C)(C)NC(C)(C)C2)ccc1Oc1cccc(-c2cn[nH]c2)c1C#N [Compound I-262]
5 | > 80 µM | 20 to 80 µM | CC1(C)CC(NC(=O)c2ccc(N3CCC(c4ccccc4)C3)c(Cl)c2)CC(C)(C)N1 (stereo not shown) [Compound I-413]
6 | < 5 µM | < 5 µM | CC1(C)CC(NC(=O)c2ccc(Oc3cccc(-c4ccc(O)nc4)c3C#N)c(Cl)c2)CC(C)(C)N1 [Compound I-558]
7 | > 80 µM | 5 to 20 µM | CC1(C)CC(NC(=O)c2ccc(Oc3cccc(N4CCCC4=O)c3)c(Cl)c2)CC(C)(C)N1 [Compound I-385]
8 | 5 to 20 µM | 5 to 20 µM | CC1(C)CC(NC(=O)c2ccc(C#Cc3ccccc3)cc2)CC(C)(C)N1 [Compound I-173]
9 | 20 to 80 µM | < 5 µM | CC1(C)CC(NC(=O)c2ccc(Oc3cccc4cnccc34)cc2)CC(C)(C)N1 [Compound I-171]
10 | < 5 µM | < 5 µM | CC1(C)CC(NC(=O)c2ccc(Oc3cccc(-c4ccnc(C#N)c4)c3C#N)c(Cl)c2)CC(C)(C)N1 [Compound I-561]
11 | < 5 µM | < 5 µM | Cc1cc(C(=O)NC2CC(C)(C)NC(C)(C)C2)ccc1Oc1cccc(Br)c1C#N [Compound I-259]
12 | > 80 µM | 20 to 80 µM | CC1(C)CC(NC(=O)c2ccc(Cn3cnc4ccccc43)cc2)CC(C)(C)N1 [Compound I-405]
13 | > 80 µM | 20 to 80 µM | CC(=O)N1CCN(c2cccc(Oc3ccc(C(=O)NC4CC(C)(C)NC(C)(C)C4)cc3Cl)c2)CC1 [Compound I-499]
14 | > 80 µM | < 5 µM | CCOc1cc(-c2cccc(Oc3ccc(C(=O)NC4CC(C)(C)NC(C)(C)C4)cc3Cl)c2C#N)ccn1 [Compound I-556]
15 | 5 to 20 µM | < 5 µM | CC1(C)CC(/C=C/c2ccc(Oc3cccc(-c4ccncn4)c3C#N)c(Cl)c2)CC(C)(C)N1 [Compound I-592, (E)-2-(2-chloro-4-(2-(2,2,6,6-tetramethylpiperidin-4-yl)vinyl)phenoxy)-6-(pyrimidin-4-yl)benzonitrile]
16 | 5 to 20 µM | < 5 µM | CC1(C)CC(NC(=O)c2ccc(Oc3ccccc3-c3cnc4ccccc4c3)c(Cl)c2)CC(C)(C)N1 [Compound I-320]
17 | 5 to 20 µM | < 5 µM | COc1cc(-c2cccc(Oc3ccc(C(=O)NC4CC(C)(C)NC(C)(C)C4)cc3Cl)c2C#N)cc(C)n1 [Compound I-573]
18 | < 5 µM | < 5 µM | CC1(C)CC(NC(=O)c2ccc(Oc3cccc(-c4cn[nH]c4)c3C#N)c(Cl)c2)CC(C)(C)N1 [Compound I-307]
19 | 5 to 20 µM | < 5 µM | CN(C)C(=O)Cn1cc(-c2cccc(Oc3ccc(C(=O)NC4CC(C)(C)NC(C)(C)C4)cc3Cl)c2C#N)cn1 [Compound I-395]
20 | 20 to 80 µM | 20 to 80 µM | CC(=O)Nc1ccc(-c2cccc(OCc3ccc(C(=O)NC4CC(C)(C)NC(C)(C)C4)cc3)c2)cc1 [Compound I-167]
21 | 20 to 80 µM | 20 to 80 µM | CC1(C)CC(NC(=O)c2ccc(Oc3cccc(N4CCCC4)c3)c(Cl)c2)CC(C)(C)N1 [Compound I-379]

Row | IC50 (Y641N EZH2) | IC50 (EZH2) | SMILES
22 | 20 to 80 µM | < 5 µM | CC1(C)CC(NC(=O)c2ccc(Oc3ccccc3C#N)c(F)c2)CC(C)(C)N1 [Compound I-217]
23 | < 5 µM | < 5 µM | CC1(C)CC(NC(=O)c2ccc(Oc3cccc(-c4cccnc4)c3C#N)c(Br)c2)CC(C)(C)N1 [Compound I-364]
24 | > 80 µM | < 5 µM | CC1(C)CC(NC(=O)c2ccc(Oc3cccc(-c4ccnnc4)c3C#N)c(Cl)c2)CC(C)(C)S1(=O)=O [Compound I-533]
25 | < 5 µM | < 5 µM | CC1(C)CC(OC(=O)c2ccc(Oc3cccc(-c4ccnnc4)c3C#N)c(Cl)c2)CC(C)(C)N1 [Compound I-504, 2,2,6,6-tetramethylpiperidin-4-yl 3-chloro-4-(2-cyano-3-(pyridazin-4-yl)phenoxy)benzoate]
26 | 5 to 20 µM | < 5 µM | Cc1cc(C(=O)NC2CC(C)(C)NC(C)(C)C2)ccc1Oc1ccccc1C#N [Compound I-223]
27 | 5 to 20 µM | < 5 µM | CC1(C)CC(NC(=O)c2ccc(Oc3cccc(-c4cncnc4)c3C#N)c(Cl)c2)CC(C)(C)N1 [Compound I-340]
28 | < 5 µM | < 5 µM | CC1OC(=O)c2c(Oc3ccc(C(=O)NC4CC(C)(C)NC(C)(C)C4)cc3Cl)cccc21 (stereo not shown) [Compound I-401]
29 | < 5 µM | < 5 µM | CC1(C)CC(NC(=O)c2ccc(Oc3cccc(I)c3C#N)c(Cl)c2)CC(C)(C)N1 [Compound I-257]
30 | 5 to 20 µM | < 5 µM | Cc1ccc(-c2cccc(Oc3ccc(C(=O)NC4CC(C)(C)NC(C)(C)C4)cc3Cl)c2C#N)cn1 [Compound I-362]
31 | < 5 µM | < 5 µM | CC1(C)CC(NC(=O)c2ccc(Oc3cccc(-c4cccnc4)c3C#N)c(Cl)c2)CC(C)(C)N1 [Compound I-308]
32 | < 5 µM | < 5 µM | CC1(C)CC(NC(=O)c2ccc(Oc3cccc(F)c3C#N)c(Cl)c2)CC(C)(C)N1 [Compound I-258]
33 | 20 to 80 µM | < 5 µM | CC1(C)CC(OCc2ccc(Oc3cccc(-c4ccncn4)c3C#N)c(Cl)c2)CC(C)(C)N1 [Compound I-591, 2-(2-chloro-4-(((2,2,6,6-tetramethylpiperidin-4-yl)oxy)methyl)phenoxy)-6-(pyrimidin-4-yl)benzonitrile]
34 | 5 to 20 µM | < 5 µM | CC1(C)CC(NC(=O)c2ccc(Oc3ccccc3C#N)c(CCc3ccccc3)c2)CC(C)(C)N1 [Compound I-199]
35 | 20 to 80 µM | < 5 µM | CC1(C)CC(NC(=O)c2ccc(Oc3cccc4c3CCNC4)c(Cl)c2)CC(C)(C)N1 [Compound I-423]
36 | 20 to 80 µM | < 5 µM | CC(=O)N1CCC(c2cccc(Oc3ccc(C(=O)NC4CC(C)(C)NC(C)(C)C4)cc3)c2C#N)CC1 [Compound I-536]
37 | > 80 µM | 20 to 80 µM | CCc1cccc(Oc2ccc(C(=O)NC3CC(C)(C)NC(C)(C)C3)cc2Cl)c1-c1ccncc1 [Compound I-342]
38 | 5 to 20 µM | < 5 µM | Cc1cc(-c2cccc(Oc3ccc(C(=O)NC4CC(C)(C)NC(C)(C)C4)cc3Cl)c2C#N)cc(C)n1 [Compound I-585]
39 | 5 to 20 µM | < 5 µM | CN(C)c1cccc(Oc2ccc(C(=O)NC3CC(C)(C)NC(C)(C)C3)cc2Cl)c1C#N [Compound I-334]
40 | < 5 µM | < 5 µM | CC1(C)CC(NC(=O)c2ccc(Oc3cccc(-c4ccncn4)c3C#N)c(Cl)c2)CC(C)(C)N1 [Compound I-480, 3-Chloro-4-(2-cyano-3-(pyrimidin-4-yl)phenoxy)-N-(2,2,6,6-tetramethylpiperidin-4-yl)benzamide]
41 | > 80 µM | 20 to 80 µM | CC1(C)CC(NC(=O)c2ccc(Oc3cccc(N4CCOCC4)c3)c(Cl)c2)CC(C)(C)N1 [Compound I-590]
